Measured values published in US20260276643A1, “METHODS FOR PREDICTING AND IMPROVING THERAPEUTIC EFFICACY OF CANCER TREATMENTS AND METHODS FOR CANCER PROGNOSIS” (Università degli studi di Verona, priority 2023, published 2026).
Read-outs that look alike come from different tables or passages of the source.

Tests used:
[1] = test system: CLDN18.2 expression in cancer cells; conditions: WO2013/174510; Tureci 2019; cited from earlier work
[2] = test system: CLDN18 expression in DANG cells; assay: CLDN18 exogenous regulation in vitro: CLDN18 staining of treated DANG cells; type: cell-based, human

Row | Compound | CLDN18.2 expression levels in cancer cells [1] | CLDN18 expression (percentage of CLDN18+ cells) [2] | also measured
1 | O=C1[O][Pt]2([NH][C@@H]3CCCC[C@H]3[NH]2)[O]C1=O [oxaliplatin, [(1R,2R)-cyclohexane-1,2-diamine](ethanedioato-O,O′)platinum(II)] | upregulate existing CLDN18.2 expression levels in cancer cells |  | 
2 | Nc1ccn([C@@H]2O[C@H](CO)[C@@H](O)C2(F)F)c(=O)n1 [Gemcitabine, 4-amino-1-(2-deoxy-2,2-difluoro-β-D-erythro-pentofuranosyl)pyrimidin-2(1H)-one] | upregulate existing CLDN18.2 expression levels in cancer cells |  | CLDN18 expression (mean fluorescence intensity, fold change on untreated) ([2]; DANG cells, 48 hours treatment, FIG. 7): induced CLDN18 expression in DANG cells
3 | CCCCCCCCCCCCCC(=O)O[C@@H]1[C@@H](C)[C@@]2(O)[C@@H](C=C(CO)C[C@]3(O)C(=O)C(C)=C[C@@H]23)[C@@H]2C(C)(C)[C@]12OC(C)=O [PMA, Phorbol 12-myristate 13-acetate] |  | induced CLDN18 expression in DANG cells | CLDN18 expression (mean fluorescence intensity, fold change on untreated) [2]: induced CLDN18 expression in DANG cells
4 | Verteporfin |  |  | CLDN18 expression (percentage of CLDN18+ cells) ([2]; DANG cells, extended experiment, FIG. 11): induced CLDN18 expression in DANG cells
5 | O=c1[nH]cc(F)c(=O)[nH]1 [5-fluorouracil, 5-fluoro-1H-pyrimidine-2,4-dione] | upregulate existing CLDN18.2 expression levels in cancer cells |  | 
6 | NC(=O)Nc1sc(-c2ccc(F)cc2)cc1C(N)=O [TPCA-1] |  | induced CLDN18 expression in DANG cells | 
